Reference: US9855270B2, “Methods and compositions for modulating estrogen receptor mutants” (priority 2014, dated 2018)
Where two headings read alike, the source gives them in different places.

What was measured:
Assay in all cases: cells
Assay type in all cases: cell-based
[1] = tested on: MCF-7 cells stably expressing EF1 HA-ER-α L536R; settings: EF1 HA-ER-α L536R; for Percent inhibition compared to vehicle: 5-Day Incubation; for Efficacy (Emax): Day 5 relative to Day 0; for EC50: Homo sapiens, MCF7, read-out: Potency (EC50; nM)
Text: (§1) MCF-7 Mutant ER-α Stable Cell Line Generation: MCF-7 cells stably expressing wild-type or ER-α mutants were generated by subcloning ESR1 wild-type and mutant cDNAs containing an amino terminal hemagglutinin tag into pCDH-EF1-MCS-(PGK-Puro) (referred to as EF1 HA-ER-α) and pCDH-UbC-MCS-EF1-Hygro (referred to as UbC HA-ER-α) (System Biosciences). The resulting plasmids, in addition to an empty vector negative control, were subsequently cotransfected into HEK293T cells with the pPACKH1 packaging plasmid mix (System Biosciences) according to the manufacturer's protocol. Four days post transfection lentiviral particles were purified from the cell medium, tiered and stored at −80° C. MCF-7 cells were transduced with the purified viral particles and stable cell lines were selected by growth in RPMI containing 10% FBS plus 1 μG/mL puromycin or 200 μG/mL hygromycin for pCDH-EF1-MCS-(PGK-Puro) and pCDH-UbC-MCS-EF1-Hygro, respectively.
(§2) MCF-7 Stable Cell Line Viability: MCF-7 cells were enumerated with a hemacytometer adjusted to a concentration of 40,000 cells per mL in Phenol Free RPMI containing 10% CSS with NEAA and Sodium Pyruvate. 16 microliters of the cell suspension was added to each well of a 384 well tissue culture treated white clear bottom polystyrene plate (Corning) using a Matrix 16 channel electronic pipette. The cells were incubated overnight to allow the cells to adhere. The following day, 16 microliters of Phenol Free RPMI containing 10% CSS with NEAA and Sodium Pyruvate was added to the wells of one plate, followed by 16 μL of CellTiter-Glo (Promega, Madison Wis.) luminescent cell viability reagent using a Matrix 16 channel electronic pipette. […] The “average” of the relative luminescence units (RLUs) of the wells are considered to be the baseline value at time=zero. In addition, a 10 point, 1:5 serial dilution in DMSO (Sigma-Aldrich) was performed using Matrix 12 channel electronic pipette, including DMSO only as […]. 4 μL of each dilution was then added to 196 μL of RPMI containing 10% CSS with NEAA and Sodium Pyruvate. 16 μL of medium containing compound was added to the cells at a final concentration ranging from 10 μM to 5 pM. Compound dilution in media and subsequent addition to cells were carried out using Matrix 12 channel electronic pipettes. After 5 day compound exposure, 16 μL of CellTiter-Glo (Promega, Madison Wis.) luminescent cell viability reagent was added to the cells using a Matrix 16 channel electronic pipette. CellTiter-Glo added to 32 μL of medium without cells was used to obtain a background value. […] The relative luminescence units (RLUs) of each well were measured, and relative proliferation (fold) of each sample was determined as follows: (RLU sample−RLU background)/(RLU at T=0)=relative proliferation
(§3) The UbC promoter is reported by the manufacturer (System Biosciences) to express low to moderate RNA levels while the EF1 promoter expresses high levels (System Biosciences).

[2] = tested on: MCF-7 cells stably expressing EF1 HA-ER-α E380Q; settings: EF1 HA-ER-α E380Q; for Percent inhibition compared to vehicle: 5-Day Incubation; for Efficacy (Emax): Day 5 relative to Day 0; for EC50: Homo sapiens, MCF7, read-out: Potency (EC50; nM)
Text: as §1, §2, §3

[3] = tested on: MCF-7 cells stably expressing UbC HA-ER-α L536P; settings: for EC50: Homo sapiens, MCF7, read-out: Potency (EC50; nM)
Text: as §1, §2, §3

[4] = tested on: MCF-7 cells stably expressing UbC HA-ER-α Y537N; settings: UbC HA-ER-α Y537N; for EC50: Homo sapiens, MCF7, read-out: Potency (EC50; nM); for Percent inhibition compared to vehicle: 5-Day Incubation; for Efficacy (Emax): Day 5 relative to Day 0
Text: as §1, §2, §3

[5] = tested on: MCF-7 cells stably expressing UbC HA-ER-α L536R; settings: UbC HA-ER-α L536R; for EC50: Homo sapiens, MCF7, read-out: Potency (EC50; nM); for Percent inhibition compared to vehicle: 5-Day Incubation; for Efficacy (Emax): Day 5 relative to Day 0
Text: as §1, §2, §3

[6] = tested on: MCF-7 cells stably expressing EF1 HA-ER-α Y537N; settings: EF1 HA-ER-α Y537N; for Percent inhibition compared to vehicle: 5-Day Incubation; for Efficacy (Emax): Day 5 relative to Day 0; for EC50: Homo sapiens, MCF7, read-out: Potency (EC50; nM)
Text: as §1, §2, §3

[7] = tested on: MCF-7 cells stably expressing UbC HA-ER-α E380Q; settings: UbC HA-ER-α E380Q; for EC50: Homo sapiens, MCF7, read-out: Potency (EC50; nM); for Percent inhibition compared to vehicle: 5-Day Incubation; for Efficacy (Emax): Day 5 relative to Day 0
Text: as §1, §2, §3

[8] = tested on: MCF-7 cells stably expressing EF1 HA-ER-α L536P; settings: EF1 HA-ER-α L536P; for Percent inhibition compared to vehicle: 5-Day Incubation; for Efficacy (Emax): Day 5 relative to Day 0; for EC50: Homo sapiens, MCF7, read-out: Potency (EC50; nM)
Text: as §1, §2, §3

[9] = Antagonist Mode, −E2 (Table 27)
[10] = Agonist Mode, −E2, Day 5 relative to Day 0
[11] = Antagonist Mode, +E2, Day 5 relative to Day 0

CC1=C(c2cccc(O)c2)[C@H](c2ccc(OCCN3CC(CF)C3)cc2)Oc2ccc(O)cc21 [Compound 4-23, (S)-2-(4-(2-(3-(fluoromethyl)azetidin-1-yl)ethoxy)phenyl)-3-(3-hydroxyphenyl)-4-methyl-2H-chromen-6-ol]
Percent inhibition compared to vehicle ([1]; Agonist Mode, −E2): 57% | Efficacy (Emax) ([1]; Agonist Mode, −E2): 2.94 ± 0.34 | Percent inhibition compared to vehicle ([1]; Antagonist Mode, +E2): 60% | Efficacy (Emax) ([1]; Antagonist Mode, +E2): 2.76 ± 0.50 | EC50 ([1]; Antagonist Mode, +E2): 53.3 ± 65.8 nM | EC50 [1, 9]: 11.3 ± 9.22 nM | Percent inhibition compared to vehicle ([2]; Agonist Mode, −E2): 63% | Efficacy (Emax) ([2]; Agonist Mode, −E2): 2.43 ± 0.02 | Percent inhibition compared to vehicle ([2]; Antagonist Mode, +E2): 62% | Efficacy (Emax) ([2]; Antagonist Mode, +E2): 2.39 ± 0.24 | EC50 ([2]; Antagonist Mode, +E2): 14 ± 15.4 nM | EC50 [2, 9]: 3.76 ± 3.11 nM | Percent inhibition compared to vehicle ([3]; Agonist Mode, −E2, 5-Day Incubation): 49% | Efficacy (Emax) [3, 10]: 1.62 ± 0.13 | Percent inhibition compared to vehicle ([3]; Antagonist Mode, +E2, 5-Day Incubation): 69% | Efficacy (Emax) [3, 11]: 1.87 ± 0.27 | EC50 ([3]; Agonist Mode, −E2): 0.231 ± 0.104 nM | EC50 ([3]; Antagonist Mode, +E2): 2.09 ± 0.425 nM | EC50 ([4]; Agonist Mode, −E2): 0.446 ± 0.219 nM | EC50 ([4]; Antagonist Mode, +E2): 2.64 ± 1.86 nM | Percent inhibition compared to vehicle ([4]; Agonist Mode, −E2): 62% | Efficacy (Emax) ([4]; Agonist Mode, −E2): 1.63 ± 0.17 | Percent inhibition compared to vehicle ([4]; Antagonist Mode, +E2): 74% | Efficacy (Emax) ([4]; Antagonist Mode, +E2): 1.70 ± 0.03 | EC50 ([5]; Agonist Mode, −E2): 0.334 ± 0.27 nM | EC50 ([5]; Antagonist Mode, +E2): 2.58 ± 0.181 nM | Percent inhibition compared to vehicle ([5]; Agonist Mode, −E2): 53% | Efficacy (Emax) ([5]; Agonist Mode, −E2): 1.80 ± 0.26 | Percent inhibition compared to vehicle ([5]; Antagonist Mode, +E2): 71% | Efficacy (Emax) ([5]; Antagonist Mode, +E2): 1.73 ± 0.31 | Percent inhibition compared to vehicle ([6]; Agonist Mode, −E2): 88% | Efficacy (Emax) ([6]; Agonist Mode, −E2): 0.74 ± 0.01 | Percent inhibition compared to vehicle ([6]; Antagonist Mode, +E2): 87% | Efficacy (Emax) ([6]; Antagonist Mode, +E2): 0.70 ± 0.01 | EC50 ([6]; Antagonist Mode, +E2): 45.5 ± 51.7 nM | EC50 [6, 9]: 16 ± 17.6 nM | EC50 ([7]; Agonist Mode, −E2): 0.208 ± 0.141 nM | EC50 ([7]; Antagonist Mode, +E2): 1.02 ± 0.163 nM | Percent inhibition compared to vehicle ([7]; Agonist Mode, −E2): 58% | Efficacy (Emax) ([7]; Agonist Mode, −E2): 1.78 ± 0.28 | Percent inhibition compared to vehicle ([7]; Antagonist Mode, +E2): 77% | Efficacy (Emax) ([7]; Antagonist Mode, +E2): 1.61 ± 0.34 | Percent inhibition compared to vehicle ([8]; Agonist Mode, −E2): 62% | Efficacy (Emax) ([8]; Agonist Mode, −E2): 3.11 ± 0.40 | Percent inhibition compared to vehicle ([8]; Antagonist Mode, +E2): 64% | Efficacy (Emax) ([8]; Antagonist Mode, +E2): 3.25 ± 0.07 | EC50 ([8]; Antagonist Mode, +E2): 15.1 ± 13.6 nM | EC50 [8, 9]: 4.78 ± 4.67 nM

C[C@]12CC[C@@H]3c4ccc(O)cc4CC[C@H]3[C@@H]1CC[C@@H]2O [17β-Estradiol]
Efficacy (Emax) ([1]; Agonist Mode, −E2): 6.93 ± 1.50 | Efficacy (Emax) ([1]; Antagonist Mode, +E2): 6.83 ± 1.36 | Efficacy (Emax) ([2]; Antagonist Mode, +E2): 5.75 ± 0.17 | Efficacy (Emax) [3, 10]: 5.06 ± 0.76 | Efficacy (Emax) [3, 11]: 5.66 ± 0.52 | EC50 ([3]; Agonist Mode, −E2): 0.212 ± 0.401 nM | EC50 ([4]; Agonist Mode, −E2): 0.126 ± 0.233 nM | Efficacy (Emax) ([4]; Antagonist Mode, +E2): 6.49 ± 0.97 | EC50 ([5]; Agonist Mode, −E2): 0.008 ± 0.006 nM | Efficacy (Emax) ([5]; Agonist Mode, −E2): 5.72 ± 0.74 | Efficacy (Emax) ([5]; Antagonist Mode, +E2): 5.92 ± 0.67 | Efficacy (Emax) ([6]; Agonist Mode, −E2): 5.52 ± 0.43 | EC50 ([7]; Agonist Mode, −E2): 0.013 ± 0.011 nM | Efficacy (Emax) ([7]; Agonist Mode, −E2): 7.36 ± 1.07 | Efficacy (Emax) ([7]; Antagonist Mode, +E2): 7.69 ± 1.94 | Efficacy (Emax) ([8]; Agonist Mode, −E2): 8.49 ± 0.94 | Efficacy (Emax) ([8]; Antagonist Mode, +E2): 9.07 ± 0.12
